Assay results as given in the CheMixHub ionic liquid set.

Assay: xn = mol fraction of the nth substance listed

O=C([O-])C1=NN(c2ccc(S(=O)(=O)[O-])cc2)C(=O)C1N=Nc1ccc(S(=O)(=O)[O-])cc1.[Na+].[Na+].[Na+] (stereo not given) + C[N+](C)(C)Cc1ccccc1.[Cl-] + O
electrical conductivity [S/m], 101.3 kPa, frequency 0.001 MHz
Conditions	298.15 K	308.15 K	318.15 K
x1 = 0.0001802, x2 = 1.802e-05	0.132	0.158	0.197
x1 = 0.0001803, x2 = 5.405e-05	0.142	0.177	0.213
x1 = 0.0001803, x2 = 9.008e-05	0.168	0.187	0.228
x1 = 0.0004504, x2 = 1.801e-05	0.231	0.276	0.355
x1 = 0.0004505, x2 = 5.403e-05	0.254	0.317	0.388
x1 = 0.0004507, x2 = 9.005e-05	0.303	0.331	0.413
x1 = 0.0007204, x2 = 1.801e-05	0.331	0.392	0.498
x1 = 0.0007206, x2 = 5.402e-05	0.359	0.447	0.535
x1 = 0.0007209, x2 = 9.003e-05	0.419	0.477	0.558
x1 = 0.0009903, x2 = 1.8e-05	0.421	0.512	0.641
x1 = 0.0009906, x2 = 5.4e-05	0.463	0.588	0.677
x1 = 0.0009909, x2 = 9e-05	0.57	0.614	0.723
x1 = 0.00126, x2 = 1.8e-05	0.519	0.638	0.777
x1 = 0.00126, x2 = 5.399e-05	0.583	0.716	0.826
x1 = 0.001261, x2 = 8.998e-05	0.684	0.739	0.863
x1 = 0.00153, x2 = 1.799e-05	0.641	0.753	0.915
x1 = 0.00153, x2 = 5.397e-05	0.705	0.841	0.972
x1 = 0.001531, x2 = 8.995e-05	0.812	0.88	1.01

viscosity [mPa·s], 101.3 kPa
Conditions	298.15 K	308.15 K	318.15 K
x1 = 0.0001802, x2 = 1.802e-05	0.905	0.747	0.629
x1 = 0.0001803, x2 = 5.405e-05	0.923	0.769	0.646
x1 = 0.0001803, x2 = 9.008e-05	0.941	0.789	0.666
x1 = 0.0004504, x2 = 1.801e-05	0.923	0.764	0.644
x1 = 0.0004505, x2 = 5.403e-05	0.944	0.788	0.664
x1 = 0.0004507, x2 = 9.005e-05	0.962	0.809	0.685
x1 = 0.0007204, x2 = 1.801e-05	0.938	0.778	0.658
x1 = 0.0007206, x2 = 5.402e-05	0.962	0.803	0.679
x1 = 0.0007209, x2 = 9.003e-05	0.983	0.826	0.701
x1 = 0.0009903, x2 = 1.8e-05	0.952	0.791	0.67
x1 = 0.0009906, x2 = 5.4e-05	0.977	0.818	0.693
x1 = 0.0009909, x2 = 9e-05	1	0.842	0.717
x1 = 0.00126, x2 = 1.8e-05	0.964	0.803	0.681
x1 = 0.00126, x2 = 5.399e-05	0.992	0.832	0.707
x1 = 0.001261, x2 = 8.998e-05	1.015	0.858	0.731
x1 = 0.00153, x2 = 1.799e-05	0.977	0.815	0.693
x1 = 0.00153, x2 = 5.397e-05	1.007	0.847	0.72
x1 = 0.001531, x2 = 8.995e-05	1.032	0.873	0.746

CO + C[N+](C)(CCCS(=O)(=O)O)C1CCCCC1.Cc1ccc(S(=O)(=O)[O-])cc1
101 kPa, x2 = 0
Conditions	viscosity [mPa·s]
303.15 K	0.5044
308.15 K	0.4775
313.15 K	0.4515
318.15 K	0.4244
323.15 K	0.4033
328.15 K	0.3883

CCCC[n+]1ccn(C)c1.[I-] + F[B-](F)(F)F.[Li+]
Conditions	electrical conductivity [S/m]
308.15 K, 101 kPa, x2 = 0	0.0286

CC[n+]1ccn(C)c1.O=S(=O)([N-]S(=O)(=O)C(F)(F)F)C(F)(F)F + F[B-](F)(F)F.[Li+]
101 kPa, x1 = 1
Conditions	electrical conductivity [S/m]
288.15 K	0.611
298.15 K	0.883
333.15 K	2.18

CC[n+]1ccn(C)c1.O=S(=O)([N-]S(=O)(=O)C(F)(F)F)C(F)(F)F + F[P-](F)(F)(F)(F)F.[Li+]
101 kPa, x1 = 1
Conditions	electrical conductivity [S/m]
288.15 K	0.611
298.15 K	0.883
333.15 K	2.18

C[N+](CCO)(CCO)CCOCCO.[Cl-] + NC(N)=O
100 kPa, x1 = 0.5
Conditions	viscosity [mPa·s]
328.15 K	560
343.15 K	221
348.15 K	169
353.15 K	131

CC(O)C(=O)[O-].C[N+](C)(C)CCO + O
101 kPa
Conditions	viscosity [mPa·s]
293.15 K, x2 = 0.0272	5800
293.15 K, x2 = 0.5026	174.9
293.15 K, x2 = 0.7993	26.26
293.15 K, x2 = 0.8998	7.312
298.15 K, x2 = 0	559
298.15 K, x2 = 0.4038	187.4
298.15 K, x2 = 0.5858	87.96
298.15 K, x2 = 0.7993	20.92
303.15 K, x2 = 0.0992	308.5
308.15 K, x2 = 0.3008	144.2
308.15 K, x2 = 0.8998	4.497
313.15 K, x2 = 0.8998	3.897
318.15 K, x2 = 0.7993	9.616
323.15 K, x2 = 0.701	15.61
323.15 K, x2 = 0.7993	8.175
328.15 K, x2 = 0.7993	7.029
333.15 K, x2 = 0.2048	52.54
333.15 K, x2 = 0.3008	43.97
333.15 K, x2 = 0.701	11.18
348.15 K, x2 = 0.8998	1.767
353.15 K, x2 = 0.0992	30
353.15 K, x2 = 0.7993	3.729
353.15 K, x2 = 0.8998	1.614

CCC(=O)[O-].COCCn1cc[n+](C)c1 + O
100 kPa
Conditions	electrical conductivity [S/m]	viscosity [mPa·s]
288.15 K, x1 = 0.8302	0.318	81.8
288.15 K, x1 = 0.8877	0.241	96.6
288.15 K, x1 = 1	0.109	125.5
293.15 K, x1 = 0.9474	0.222	84.9
298.15 K, x1 = 0.8302	0.426	46.94
298.15 K, x1 = 0.9474	0.285	63.84
298.15 K, x1 = 1	0.228	70.11
303.15 K, x1 = 0.8579	0.483	39.8
313.15 K, x1 = 0.9474	0.588	31.35
318.15 K, x1 = 0.8579	0.839	20
318.15 K, x1 = 0.9474	0.726	24.42
